From publication PMC8132073 (Journal of Applied Glycoscience, 2020)

How the values were obtained:
BsRhaA = molecular target: T1, BsRhaA (Bacillus sp. GL1, UniProt Q93RE8); test: p-nitrophenol release, absorbance […] nm; assay type: biochemical; details: […] sodium phosphate pH […] °C
T1 sequence (Q93RE8 1-886): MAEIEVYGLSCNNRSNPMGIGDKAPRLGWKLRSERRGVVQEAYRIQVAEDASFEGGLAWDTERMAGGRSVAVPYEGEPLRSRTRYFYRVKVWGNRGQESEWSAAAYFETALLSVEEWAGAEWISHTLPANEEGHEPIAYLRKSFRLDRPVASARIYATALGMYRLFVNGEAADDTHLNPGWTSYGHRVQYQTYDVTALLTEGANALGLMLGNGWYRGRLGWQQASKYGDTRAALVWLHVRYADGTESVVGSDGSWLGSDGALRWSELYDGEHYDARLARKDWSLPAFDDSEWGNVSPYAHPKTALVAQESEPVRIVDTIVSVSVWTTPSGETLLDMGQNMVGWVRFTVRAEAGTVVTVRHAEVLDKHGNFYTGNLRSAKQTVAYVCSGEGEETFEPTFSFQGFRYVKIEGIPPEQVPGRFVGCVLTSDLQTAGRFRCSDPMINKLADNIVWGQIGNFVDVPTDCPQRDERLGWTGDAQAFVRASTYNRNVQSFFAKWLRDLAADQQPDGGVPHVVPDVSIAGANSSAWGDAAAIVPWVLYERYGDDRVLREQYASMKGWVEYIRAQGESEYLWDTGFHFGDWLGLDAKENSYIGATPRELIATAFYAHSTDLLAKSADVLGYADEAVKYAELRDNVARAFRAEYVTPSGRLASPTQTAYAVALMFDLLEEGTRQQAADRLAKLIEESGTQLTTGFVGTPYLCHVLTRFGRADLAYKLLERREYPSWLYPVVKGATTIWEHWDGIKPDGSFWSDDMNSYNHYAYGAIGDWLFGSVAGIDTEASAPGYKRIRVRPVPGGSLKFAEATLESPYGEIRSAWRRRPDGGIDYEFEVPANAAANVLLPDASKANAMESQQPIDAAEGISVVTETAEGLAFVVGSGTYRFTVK

KoRha = molecular target: T2, KoRha (Klebsiella oxytoca, UniProt A0A0J9X262); test: p-nitrophenol release, absorbance […] nm; assay type: biochemical; details: 100 mM sodium phosphate pH 7.0, 30 °C
T2 sequence (A0A0J9X262 1-523): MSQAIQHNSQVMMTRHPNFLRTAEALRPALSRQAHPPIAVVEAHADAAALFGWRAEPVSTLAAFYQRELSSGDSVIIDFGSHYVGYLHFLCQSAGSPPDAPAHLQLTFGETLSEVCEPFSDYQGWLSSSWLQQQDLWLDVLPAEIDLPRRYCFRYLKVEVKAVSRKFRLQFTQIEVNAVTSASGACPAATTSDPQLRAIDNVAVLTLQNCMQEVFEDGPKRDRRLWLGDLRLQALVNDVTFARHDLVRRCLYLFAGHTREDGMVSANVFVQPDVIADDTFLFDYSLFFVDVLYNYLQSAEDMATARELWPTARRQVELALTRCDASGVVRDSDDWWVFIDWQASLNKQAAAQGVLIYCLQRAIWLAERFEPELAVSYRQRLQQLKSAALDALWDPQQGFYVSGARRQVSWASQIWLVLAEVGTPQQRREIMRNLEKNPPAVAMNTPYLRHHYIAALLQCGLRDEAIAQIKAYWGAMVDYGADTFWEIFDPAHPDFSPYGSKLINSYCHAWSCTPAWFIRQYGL

SMILES: C[C@@H]1O[C@@H](Oc2ccc([N+](=O)[O-])cc2)[C@H](O)[C@H](O)[C@H]1O [pNP-α-L-Rha, 4-nitrophenyl-α-L-rhamnopyranoside]
- p-nitrophenol release, absorbance 405 nm (BsRhaA): All four α-L-Rha-ases exhibited α-L-rhamnosyl-hydrolyzing and weak α-L-mannosyl-hydrolyzing activity
- p-nitrophenol release, absorbance 405 nm (KoRha): All four α-L-Rha-ases exhibited α-L-rhamnosyl-hydrolyzing and weak α-L-mannosyl-hydrolyzing activity
